Measured values as given in ChEMBL document CHEMBL1201862, “PubChem BioAssay data set” (2004).
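Where inhibition never reached the appropriate level, the endpoint shown equals the highest concentration tested. Otherwise, values were interpolated linearly from a five-concentration, 48-hour dose response in 96-well plates. Here, GI50 denotes the concentration required for 50% inhibition of growth.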 Calls of active or inactive are those of the source. Rule as the data show it: active = GI50 up to about 1.1 µM and inactive = higher.

Columns and labels:
Assay in all cases: NCI-60 cell line screen, 48 h
HL-60 = test system: HL-60
SF-539 = test system: SF-539
HOP-62 = test system: HOP-62
LOX IMVI = test system: LOX IMVI
DMS-273 = test system: DMS-273
SN12C = test system: SN12C
HOP-18 = test system: HOP-18
M14 = test system: M14
ACHN = test system: ACHN
SW-620 = test system: SW-620
HOP-92 = test system: HOP-92
SK-MEL-2 = test system: SK-MEL-2
U-251 = test system: U-251
SK-OV-3 = test system: SK-OV-3
KM12 = test system: KM12
UACC-62 = test system: UACC-62
HCT-116 = test system: HCT-116
DMS-114 = test system: DMS-114
LXFL 529 = test system: LXFL 529
NCI-H522 = test system: NCI-H522
SF-295 = test system: SF-295
786-0 = test system: 786-0
OVCAR-5 = test system: OVCAR-5
CAKI-1 = test system: CAKI-1
HT-29 = test system: HT-29
XF498 = test system: XF498
EKVX = test system: EKVX
COLO 205 = test system: COLO 205
SR = test system: SR
HCT-15 = test system: HCT-15
NCI-H23 = test system: NCI-H23
OVCAR-8 = test system: OVCAR-8
SNB-19 = test system: SNB-19
HCC 2998 = test system: HCC 2998
NCI-H460 = test system: NCI-H460
UACC-257 = test system: UACC-257
CCRF-CEM = test system: CCRF-CEM
KM-20L2 = test system: KM-20L2
K562 = test system: K562
OVCAR-4 = test system: OVCAR-4
A498 = test system: A498
OVCAR-3 = test system: OVCAR-3
DLD-1 = test system: DLD-1
MOLT-4 = test system: MOLT-4
UO-31 = test system: UO-31
A549 = test system: A549
Malme-3M = test system: Malme-3M
SNB-75 = test system: SNB-75
SK-MEL-5 = test system: SK-MEL-5
TK-10 = test system: TK-10
SF-268 = test system: SF-268
SK-MEL-28 = test system: SK-MEL-28
SNB-78 = test system: SNB-78
M19-MEL = test system: M19-MEL
IGROV-1 = test system: IGROV-1

Cc1ccc2c(c1)NC(=O)C(N=[N+]=[N-])(c1ccccc1)C2=O (stereo not given)
GI50 (HL-60): 16.4 µM (inactive) | GI50 (SF-539): 35.5 µM (inactive) | GI50 (HOP-62): 65.9 µM (inactive) | GI50 (LOX IMVI): 18.3 µM (inactive) | GI50 (DMS-273): 12.3 µM (inactive) | GI50 (SN12C): 21.1 µM (inactive) | GI50 (HOP-18): 26.1 µM (inactive) | GI50 (M14): 17 µM (inactive) | GI50 (ACHN): 41.1 µM (inactive) | GI50 (SW-620): 34.8 µM (inactive) | GI50 (HOP-92): 24.5 µM (inactive) | GI50 (SK-MEL-2): 17.9 µM (inactive) | GI50 (U-251): 25.8 µM (inactive) | GI50 (SK-OV-3): 33.9 µM (inactive) | GI50 (KM12): 15.2 µM (inactive) | GI50 (UACC-62): 22.2 µM (inactive) | GI50 (HCT-116): 35.2 µM (inactive) | GI50 (DMS-114): 34.3 µM (inactive) | GI50 (LXFL 529): 24 µM (inactive) | GI50 (NCI-H522): 20.8 µM (inactive) | GI50 (SF-295): 25.8 µM (inactive) | GI50 (786-0): 30.5 µM (inactive) | GI50 (OVCAR-5): 33 µM (inactive) | GI50 (CAKI-1): 24.4 µM (inactive) | GI50 (HT-29): 20 µM (inactive) | GI50 (XF498): 24.7 µM (inactive) | GI50 (EKVX): 30.3 µM (inactive) | GI50 (COLO 205): 14.1 µM (inactive) | GI50 (SR): 20.7 µM (inactive) | GI50 (HCT-15): 21.5 µM | GI50 (NCI-H23): 20 µM (inactive) | GI50 (OVCAR-8): 27.2 µM (inactive) | GI50 (SNB-19): 30.6 µM (inactive) | GI50 (HCC 2998): > 100 µM (inactive) | GI50 (NCI-H460): 23.6 µM (inactive) | GI50 (UACC-257): 29.5 µM (inactive) | GI50 (CCRF-CEM): 28.4 µM (inactive) | GI50 (KM-20L2): 30.3 µM (inactive) | GI50 (K562): 21 µM (inactive) | GI50 (OVCAR-4): 44.2 µM (inactive) | GI50 (A498): 39.9 µM (inactive) | GI50 (OVCAR-3): 18.9 µM (inactive) | GI50 (DLD-1): 43 µM (inactive) | GI50 (MOLT-4): 24.7 µM (inactive) | GI50 (UO-31): 29 µM (inactive) | GI50 (A549): 50.5 µM (inactive) | GI50 (Malme-3M): 32.5 µM (inactive) | GI50 (SNB-75): 33.4 µM (inactive) | GI50 (SK-MEL-5): 23.1 µM (inactive) | GI50 (TK-10): 34.4 µM (inactive) | GI50 (SF-268): 45.2 µM (inactive) | GI50 (SK-MEL-28): 45.1 µM (inactive) | GI50 (SNB-78): 28.1 µM (inactive) | GI50 (M19-MEL): 19.7 µM (inactive) | GI50 (IGROV-1): 32.8 µM (inactive)
